Source: patent US20140039044A1, “Hydroxylated Polymethoxyflavone Compositions” (WLLGEN, INC., priority 2006, published 2014)
Read-outs that look alike come from different tables or passages of the source.

What was measured:
HT-29 cells [1] = assay: Apoptotic ratio by propidium iodide flow cytometry (AC50); assay type: cell-based, human; conditions: read-out: Apoptosis-inducing AC50
Procedure: The human cancer cells (2×10^5) were cultured in 60-mm Petri dishes and incubated for 24 h. After treated with test compounds for 24 h, the cells were then harvested, washed with PBS resuspended in 200 μL of PBS, and fixed in 800 μL of iced 100% ethanol at −20° C. After being left to stand overnight, the cell pellets were collected by centrifugation, resuspended in 1 mL of hypotonic buffer (0.5% Triton X-100 in PBS and 0.5 μg/mL RNase) and incubated at 37° C. for 30 min. Next, 1 mL of propidium iodide solution (50 μg/mL) was added, and the mixture was allowed to stand on ice for 30 min. Fluorescence emitted from the propidium iodide-DNA complex was quantitated after excitation of the fluorescent dye by FACScan cytometry (Becton Dickinson, San Jose, Calif.).
(§1) The PMF compounds were assayed in vitro for cell growth inhibition and for their ability to induce apoptosis in various human cancer cells, including HL-60, AGS, COLO 205, and HT-29 cells, using methods described in Section 8.4 above. Antiproliferative (IC50) and apoptosis-inducing activity (AC50) of PMFs in the HL-60, AGS, COLO 205, and HT-29 cells are reported in Table 9, where *P<0.05, **P<0.01 and ***P<0.001 indicate statistically significant differences from the control group.

HL-60 cells = assay: Cell survival assay (antiproliferative IC50); assay type: cell-based, human
Procedure: (§2) Human colon carcinoma COLO205 and HT-29 cell lines (American Type Culture Collection (ATTC), Manassas, Va.) and the leukemia cell line HL-60 were maintained at 37° C. in 5% CO2 air in RPMI 1640 medium supplemented with 10% heat-inactivated fetal bovine serum (Gibco BRL, Grand Island, N.Y.), 100 units/mL penicillin, 100 μg/mL streptomycin and 2 mM 1-glutamine. The human gastric carcinoma AGS cell line (CCRC 60102), obtained from the Food Industry Research and Development Institute (Hsinchu, Taiwan), was maintained as described above, except that DMEM/F 12 was used as the medium rather than the RPMI 1640 medium. The human breast carcinoma MCF-7 cell line MCF-7 (ATTC) was cultured in RPMI 1640 medium supplemented with 5% fetal calf serum at 37° C. in a humidified atmosphere of 5% CO2 in air. The mouse macrophage cell line RAW 264.7 was maintained in RPMI 1640 supplemented with 100 U/ml penicillin, 100 μg/ml streptomycin, and 10% heat-inactivated fetal calf serum.
(§3) Cancer cells (2×10^5) were plated in 12-well Petri dishes. The next day, the medium was changed and treated with different concentration of the test compounds or compositions for 24 h. Where individual compounds were to be tested, stock solutions of the compound was prepared to contain 200 μM of the individual hydroxylated or non-hydroxylated PMF in dimethylsulfoxide (DMSO). Control cells were treated with DMSO to a final concentration of 0.05% (v/v). Depending on the objective of the particular experiment, cells were treating with test compound or composition for 1, 3 or 6 days. At the end of incubation, cells were harvested for cell count using a hemocytometer and measuring the cellular total nucleic acid content with the CyQUANT Cell Proliferation Assay Kit (Molecular Probes).
(§4) 1 N PMF and 6 N PMF compositions containing hydroxylated PMFs, prepared as described in Section 8.3 above, 70% PMF OPE and 5,6,7,8,3′,4′-hexamethoxyflavone (nobiletin) were tested for antiproliferative activity and apoptosis-inducing activity in HL-60, AGS and COLO205 cells as described in Section 8.4 above. Antiproliferative and apoptosis-inducing activities were derived as IC50 values and AC50, values, respectively, where AC50 is the concentration required for 50% apoptosis.
as §1

COLO205 cells = assay: Cell survival assay (antiproliferative IC50); assay type: cell-based, human
Procedure: as §2, §3, §4, §1

AGS cells = assay: Cell survival assay (antiproliferative IC50); assay type: cell-based, human; conditions: read-out: Antiproliferative IC50
Procedure: as §2, §3, §4, §1

HT-29 cells [2] = assay: Cell survival assay (antiproliferative IC50); assay type: cell-based, human
Procedure: as §2, §3, §1

[3] = system: intracellular Ca^2+ stores in MCF-7 cells; assay: Ca2+ mobilization from endoplasmic reticulum stores with thapsigargin (fura-2); assay type: cell-based, human; conditions: for Filling of the endoplasmic reticulum Ca^2+ stores, in words: 25 μM; for Decrease of the Ca^2+ mobilization response: compound 4: 6.25 μM, compound 5: 12.5 μM
Procedure: To evaluate Ca^2+ influx from the extracellular space, the Mn^2+ entry rate, as a reporter of Ca^2+ influx, was measured. The images were recorded at excitation of 360 nm (the fura-2 isosbestic point) and 2 mM of extracellular Mn^2+. The rates of Ca^2+ entry were estimated from the slope of the liner portion of curves of the fura-2 fluorescence quench by Mn^2+. To evaluate Ca^2+ release from the intracellular stores, cells grown on coverslips were placed in D-PBS, and the mobilizer of the endoplasmic reticulum Ca^2+-stores, thapsigargin (1 μM), was added after recording the basal [Ca^2+]i. The peak values of the [Ca^2+]i increase, indicating the filling level of the Ca^2+-stores, were measured with fura-2.
To investigate mechanism of a sustained increase in [Ca^2+]i after treatment with PMFs, the rates of the background Ca^2+ influx from the extracellular space and the magnitudes of Ca^2+ release from the endoplasmic reticulum stores with thapsigargin were measured in the treated cells using methods described above.
In FIG. 11A through 11D, the concentration for each PMF was as follows: compound 4: 6.25 μM; compound 5: 12.5 μM; compound 6: 25 μM; and compound 7: 25 μM. […] The Ca^2+ entry rates (C, D) are presented as tangents of the linear portions of the fura-2 quench curves. Data in panel C are presented as means±SE for control cells or cells treated with PMFs 3 days (black bars) or 6 days (gray bars). […] Mn^2+ or thapsigargin was added after recording the basal level of fluorescence or basal [Ca^2+]i for 30-60 s.

[4] = system: LPS-induced nitrite production in RAW 264.7 macrophages; assay: Nitrite assay (Griess reaction); assay type: cell-based, mouse; conditions: 100 ng/ml LPS, PMF 30 μM, 24 h, FIG. 3
Procedure: Compounds or compositions were tested for anti-inflammatory effects by monitoring nitrite production in LPS-activated RAW264.7 cells. After treating the cells with LPS or LPS and test substance, supernatants were harvested and the amount of nitrite, an indicator of NO synthesis, was measured by use of the Griess reaction. Briefly, supernatants (100 μl) were mixed with the same volume of Griess reagent (1% sulphanilamide in 5% phosphoric acid and 0.1% naphthylethylenediamine dihydrochloride in water) in duplicate on 96-well plates. After incubation at room temperature for 10 min, absorbance at 570 nm was measured with a ELISA reader (Thermo Labsystems Multiskan Ascent, Finland).
The anti-inflammatory effects of compounds A-K were tested by measuring nitrite production in LPS-activated RAW 264.7 macrophages, as described in Section 8.4 above. Macrophages were treated with 100 ng/ml LPS alone or LPS and PMF (10 or 30 μM) for 24 h. At the end of incubation time, 100 μl of the culture medium was collected for the nitrite assay.

[5] = Homo sapiens, HL-60 cells, read-out: Antiproliferative IC50
[6] = Homo sapiens, COLO 205, COLO205 cells, read-out: Antiproliferative IC50
[7] = HL-60 cells, read-out: Antiproliferative IC50
[8] = COLO205 cells, read-out: Antiproliferative IC50
[9] = Homo sapiens, HL-60, read-out: Antiproliferative IC50
[10] = Homo sapiens, COLO 205, read-out: Antiproliferative IC50

SMILES	AC50 (HT-29 cells [1]; Homo sapiens) [µM]	IC50 (HL-60 cells; [5]) [µM]	IC50 (COLO205 cells; [6]) [µM]	IC50 (AGS cells; Homo sapiens, AGS cells) [µM]	IC50 (HT-29 cells [2]; Homo sapiens) [µM]	Rank of inhibitory potency on LPS-induced nitrite production [4]	further results
COc1cc(-c2cc(=O)c3c(O)c(OC)c(OC)c(OC)c3o2)cc(OC)c1OC [E, 5-hydroxy-6,7,8,3′,4′,5′-hexamethoxyflavone]	> 100	> 100	> 100	> 100	> 100	–	–
COc1ccc(-c2oc3c(OC)c(OC)c(OC)c(OC)c3c(=O)c2OC)cc1OC [D, 3,5,6,7,8,3,4-heptamethoxyflavone, reference compound]	–	–	–	–	–	–	Filling of the endoplasmic reticulum Ca^2+ stores, in words [3]: did not affect the filling of the endoplasmic reticulum Ca^2+ stores; AC50 (HT-29 cells [1]): > 100 µM; IC50 (HL-60 cells; [7]): 54.4 ± 0.9 µM; IC50 (COLO205 cells; [8]): 62.5 ± 1.81 µM; IC50 (AGS cells; AGS cells): > 100 µM; IC50 (HT-29 cells [2]): > 100 µM
COc1ccc(-c2cc(=O)c3c(OC)c(OC)c(OC)cc3o2)cc1OC [Compound 7, 5,6,7,3′,4′-pentamethoxyflavone, reference compound]	–	–	–	–	–	–	Filling of the endoplasmic reticulum Ca^2+ stores, in words [3]: did not affect the filling of the endoplasmic reticulum Ca^2+ stores
COc1ccc(-c2cc(=O)c3c(OC)c(OC)c(OC)c(OC)c3o2)cc1O [I, 3′-hydroxy-5,6,7,8,4′-pentamethoxyflavone]	> 100	–	–	–	> 100	H>G>K>C>I>B	IC50 (HL-60 cells; [9]): 52.72 ± 0.22 µM; IC50 (COLO205 cells; [10]): 76 ± 1.88 µM; IC50 (AGS cells; Homo sapiens, AGS): 65.75 ± 0.41 µM
COc1ccc(-c2cc(=O)c3c(O)c(OC)c(OC)c(OC)c3o2)cc1OC [J, 5-hydroxy-6,7,8,3′,4′-pentamethoxyflavone]	> 100	> 100	> 100	> 100	> 100	–	–
COc1ccc(-c2oc3c(OC)c(OC)c(OC)c(O)c3c(=O)c2OC)cc1OC [Compound C, 5-hydroxy-3,6,7,8,3′,4′-hexamethoxyflavone]	> 100	8.45 ± 1.6	67 ± 1.4	17 ± 0.21	77.4 ± 1.82	H>G>K>C>I>B	Decrease of the Ca^2+ mobilization response [3]: 1.5 fold
COc1c(OC)c(OC)c2c(=O)cc(-c3ccc(O)c(O)c3)oc2c1OC [H, 3′,4′-dihydroxy-5,6,7,8-tetramethoxyflavone]	> 100	–	–	–	74.72 ± 0.2	H>G>K>C>I>B	IC50 (HL-60 cells; [9]): 71.2 ± 1.93 µM; IC50 (COLO205 cells; [10]): 90.1 ± 11.9 µM; IC50 (AGS cells; Homo sapiens, AGS): 69.3 ± 4.23 µM
COc1ccc(-c2oc3c(OC)c(OC)c(OC)c(OC)c3c(=O)c2O)cc1OC [B, 3-hydroxy-5,6,7,8,3′,4-hexamethoxyflavone]	–	–	–	–	–	H>G>K>C>I>B	AC50 (HT-29 cells [1]): > 100 µM; IC50 (HL-60 cells; [7]): > 100 µM; IC50 (COLO205 cells; [8]): 23.3 ± 1.56 µM; IC50 (AGS cells; AGS cells): 72.3 ± 7.91 µM; IC50 (HT-29 cells [2]): 63.63 ± 0.49 µM
COc1cc(-c2cc(=O)c3c(OC)c(OC)c(OC)c(OC)c3o2)cc(OC)c1OC [F, 5,6,7,8,3′,4′,5′-heptamethoxyflavone, reference compound]	> 100	47 ± 4	92.6 ± 15	> 100	96.4 ± 8.66	–	–
COc1ccc(-c2cc(=O)c3c(O)c(OC)c(OC)c(OC)c3o2)cc1O [Compound K, 5,3′-dihydroxy-6,7,8,4′-tetramethoxyflavone]	> 100	10	11.2	9.61	40	H>G>K>C>I>B	–
COc1cc(-c2cc(=O)c3c(OC)c(OC)c(OC)c(OC)c3o2)ccc1O [Compound G, 4′-hydroxy-5,6,7,8,3′-pentamethoxyflavone]	> 100	47.4 ± 3.64	83.7 ± 4.96	70.5 ± 9.97	45.8	H>G>K>C>I>B	–
COc1ccc(-c2cc(=O)c3c(OC)c(OC)c(OC)c(OC)c3o2)cc1OC [Compound A, 5,6,7,8,3′,4′-hexamethoxyflavone, reference compound]	> 100	> 100	38 ± 1.4	> 100	> 100	–	IC50 (HL-60 cells; Homo sapiens, HL-60 cells, Table 4, read-out: Antiproliferative IC50): > 100 µg/mL; IC50 (COLO205 cells; Homo sapiens, COLO 205, COLO205 cells, Table 4, read-out: Antiproliferative IC50): 66.7 ± 0.73 µg/mL; IC50 (AGS cells; Homo sapiens, AGS cells, Table 4): > 100 µg/mL
COc1ccc(-c2cc(=O)c3c(OC)c(OC)c(OC)cc3o2)cc1O [Compound 5, 3′-hydroxy-5,6,7,4′-tetramethoxyflavone]	–	–	–	–	–	–	Decrease of the Ca^2+ mobilization response [3]: 1.35 fold
